Results from ChEMBL document CHEMBL4229563, “Identification of the First PPARα/γ Dual Agonist Able To Bind to Canonical and Alternative Sites of PPARγ and To Inhibit Its Cdk5-Mediated Phosphorylation” (J Med Chem, 2018).
pEC50: −log10 of the molar value. The source made the active and inactive calls. The calls are words filed in the database; no cut-off is given here.

What was measured:
[1] = target: T1, Peroxisome proliferator-activated receptor alpha (Homo sapiens, UniProt Q07869); test: Transactivation of GAL4-tagged human PPARalpha LBD expressed in human HepG2 cells after 20 hrs by luciferase reporter gene assay; assay type: cell-based; details: for pEC50: read-out: EC50
T1 sequence (Q07869 whole entry): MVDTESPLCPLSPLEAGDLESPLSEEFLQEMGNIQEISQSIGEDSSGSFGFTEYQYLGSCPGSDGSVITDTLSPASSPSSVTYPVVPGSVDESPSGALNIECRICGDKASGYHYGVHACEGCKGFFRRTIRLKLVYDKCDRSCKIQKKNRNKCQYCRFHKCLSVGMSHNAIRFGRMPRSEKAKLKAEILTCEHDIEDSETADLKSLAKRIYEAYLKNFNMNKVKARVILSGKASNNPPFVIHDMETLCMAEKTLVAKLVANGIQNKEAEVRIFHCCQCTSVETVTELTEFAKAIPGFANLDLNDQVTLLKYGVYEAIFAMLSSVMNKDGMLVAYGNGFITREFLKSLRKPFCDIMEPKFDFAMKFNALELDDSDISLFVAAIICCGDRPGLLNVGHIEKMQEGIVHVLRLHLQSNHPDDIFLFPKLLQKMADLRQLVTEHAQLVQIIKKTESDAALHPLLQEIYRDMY

[2] = target: T2, Peroxisome proliferator-activated receptor gamma (Mus musculus) (UniProt P37238); test: Agonist activity at PPARgamma in mouse 3T3-L1 cells accessed as increase in 2-deoxy-D-glucose uptake at 10 uM treated 17 hrs prior to insulin stimulation; assay type: cell-based
T2 sequence (whole entry): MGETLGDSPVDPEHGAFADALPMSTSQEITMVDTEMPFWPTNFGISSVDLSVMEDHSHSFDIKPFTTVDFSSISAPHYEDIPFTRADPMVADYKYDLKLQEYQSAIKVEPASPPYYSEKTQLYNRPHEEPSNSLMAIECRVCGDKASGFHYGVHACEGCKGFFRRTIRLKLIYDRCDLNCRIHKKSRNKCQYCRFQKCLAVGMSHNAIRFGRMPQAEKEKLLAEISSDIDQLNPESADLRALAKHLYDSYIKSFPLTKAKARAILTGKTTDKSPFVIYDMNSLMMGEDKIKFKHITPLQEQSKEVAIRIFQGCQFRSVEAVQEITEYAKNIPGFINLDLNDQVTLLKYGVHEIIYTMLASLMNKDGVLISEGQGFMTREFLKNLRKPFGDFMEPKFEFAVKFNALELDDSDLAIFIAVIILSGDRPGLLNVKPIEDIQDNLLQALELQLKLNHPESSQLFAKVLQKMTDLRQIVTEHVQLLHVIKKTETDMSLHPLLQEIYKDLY

[3] = target: T3, Peroxisome proliferator-activated receptor alpha (Mus musculus) (UniProt P23204); test: Agonist activity at PPARalpha in mouse Hepa1-6 cells assessed as increase in Acox1 RNA expression at 1 to 5 uM by qRT-PCR analysis; assay type: cell-based
T3 sequence (whole entry): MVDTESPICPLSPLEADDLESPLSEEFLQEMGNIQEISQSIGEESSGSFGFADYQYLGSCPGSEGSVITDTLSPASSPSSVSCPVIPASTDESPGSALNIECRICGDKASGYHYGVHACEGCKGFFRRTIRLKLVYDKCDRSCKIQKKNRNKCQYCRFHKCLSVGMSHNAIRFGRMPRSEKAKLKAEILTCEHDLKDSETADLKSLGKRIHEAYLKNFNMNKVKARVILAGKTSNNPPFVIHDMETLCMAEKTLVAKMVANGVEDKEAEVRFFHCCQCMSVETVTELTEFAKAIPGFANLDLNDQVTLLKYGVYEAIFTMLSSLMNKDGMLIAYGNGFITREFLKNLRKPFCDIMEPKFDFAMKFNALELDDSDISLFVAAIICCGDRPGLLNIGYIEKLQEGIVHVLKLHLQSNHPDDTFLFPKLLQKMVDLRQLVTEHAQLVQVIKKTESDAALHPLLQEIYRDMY

[4] = target: T2, Peroxisome proliferator-activated receptor gamma (Mus musculus); test: Agonist activity at PPARgamma in mouse 3T3-L1 cells assessed as increase in pck1 RNA expression at 0.1 to 2.5 uM by qRT-PCR analysis; assay type: cell-based
[5] = target: T2, Peroxisome proliferator-activated receptor gamma (Mus musculus); test: Agonist activity at PPARgamma in mouse 3T3-L1 cells assessed as increase in Gk RNA expression at 0.1 to 2.5 uM by qRT-PCR analysis; assay type: cell-based
[6] = tested on: 3T3-L1; test: Induction of cells lipid accumulation in mouse 3T3L1 cells at 10 uM by Oil Red O staining-based assay; assay type: functional, cell-based
[7] = target: T3, Peroxisome proliferator-activated receptor alpha (Mus musculus); test: Agonist activity at PPARalpha in mouse Hepa1-6 cells assessed as increase in cpt1a RNA expression at 1 to 5 uM by qRT-PCR analysis; assay type: cell-based
[8] = target: T2, Peroxisome proliferator-activated receptor gamma (Mus musculus); test: Agonist activity at PPARgamma in mouse 3T3-L1 cells assessed as increase in CD36 RNA expression at 0.1 to 2.5 uM by qRT-PCR analysis; assay type: cell-based
[9] = target: T4, Peroxisome proliferator-activated receptor gamma (Homo sapiens, UniProt P37231); test: Synergistic agonist activity at human PPARgamma LBD assessed as biotin-labeled PGC1alpha (130 to 154 residues) co-activator recruitment after 1 hr in presence of 1 uM rosiglitazone by TR-FRET assay
T4 sequence (P37231 whole entry): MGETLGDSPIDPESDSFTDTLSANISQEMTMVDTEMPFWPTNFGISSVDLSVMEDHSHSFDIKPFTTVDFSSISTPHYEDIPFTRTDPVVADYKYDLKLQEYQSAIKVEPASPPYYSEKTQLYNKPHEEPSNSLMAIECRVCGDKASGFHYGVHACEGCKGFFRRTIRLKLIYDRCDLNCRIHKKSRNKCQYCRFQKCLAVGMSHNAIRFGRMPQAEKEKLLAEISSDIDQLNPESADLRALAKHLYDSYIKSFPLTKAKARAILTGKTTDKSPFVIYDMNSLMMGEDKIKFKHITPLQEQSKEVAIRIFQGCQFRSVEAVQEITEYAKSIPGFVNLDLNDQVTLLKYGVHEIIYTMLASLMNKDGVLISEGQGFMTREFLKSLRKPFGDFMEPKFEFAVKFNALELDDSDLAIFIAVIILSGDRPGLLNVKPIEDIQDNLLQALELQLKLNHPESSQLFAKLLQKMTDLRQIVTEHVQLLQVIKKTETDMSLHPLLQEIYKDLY

[10] = target: T2, Peroxisome proliferator-activated receptor gamma (Mus musculus); test: Agonist activity at PPARgamma in mouse 3T3-L1 cells assessed as increase in Idh3a RNA expression at 0.1 to 2.5 uM by qRT-PCR analysis; assay type: cell-based
[11] = target: T2, Peroxisome proliferator-activated receptor gamma (Mus musculus); test: Agonist activity at PPARgamma in mouse 3T3-L1 cells assessed as increase in fabp4 RNA expression at 0.1 to 2.5 uM by qRT-PCR analysis; assay type: cell-based
[12] = tested on: 3T3-L1; test: Induction of lipid accumulation in mouse 3T3L1 cells at 0.1 to 2.5 uM by Oil Red O staining-based assay; assay type: functional, cell-based
[13] = target: T4, Peroxisome proliferator-activated receptor gamma; test: Synergistic agonist activity at human PPARgamma LBD assessed as biotin-labeled PGC1alpha (130 to 154 residues) co-activator recruitment after 1 hr in presence of 10 uM rosiglitazone by TR-FRET assay
[14] = target: T5, Peroxisome proliferator-activated receptor gamma (Homo sapiens) (UniProt P37231); test: Agonist activity at human PPARgamma LBD assessed as induction of recruitment of biotin-labeled PGC1alpha (130 to 154 residues) co-activator at >1 uM after 1 hr by TR-FRET assay
T5 sequence (whole entry): T4 sequence (P37231 whole entry)

[15] = target: T5, Peroxisome proliferator-activated receptor gamma (Homo sapiens); test: Binding affinity wild type apo form of PPARgamma (unknown origin) assessed as inhibition of CDK5/p35-mediated PPARgamma phosphorylation at ser273 at 0.1 to 10 uM after 3.5 hrs by ELISA relative to rosiglitazone
[16] = target: T3, Peroxisome proliferator-activated receptor alpha (Mus musculus); test: Agonist activity at PPARalpha in mouse Hepa1-6 cells assessed as increase in acadm RNA expression at 1 to 5 uM by qRT-PCR analysis; assay type: cell-based
[17] = target: T4, Peroxisome proliferator-activated receptor gamma; test: Transactivation of GAL4-tagged human PPARgamma LBD expressed in human HepG2 cells after 20 hrs by luciferase reporter gene assay; assay type: cell-based
[18] = target: T2, Peroxisome proliferator-activated receptor gamma (Mus musculus); test: Agonist activity at PPARgamma in mouse 3T3-L1 cells assessed as increase in adipoq RNA expression at 0.1 to 2.5 uM by qRT-PCR analysis; assay type: cell-based
[19] = target: T5, Peroxisome proliferator-activated receptor gamma (Homo sapiens); test: Transactivation of GAL4-tagged human PPARgamma LBD expressed in human HepG2 cells at 10^-9 to 10^-5 M after 20 hrs in presence of 5 uM PPARgamma antagonist GW9662 by luciferase reporter gene assay; assay type: cell-based
[20] = target: T2, Peroxisome proliferator-activated receptor gamma (Mus musculus); test: Agonist activity at PPARgamma in mouse 3T3-L1 cells assessed as increase in fabp4 RNA expression at 5 to 10 uM by qRT-PCR analysis; assay type: cell-based
[21] = target: T2, Peroxisome proliferator-activated receptor gamma (Mus musculus); test: Agonist activity at PPARgamma in mouse 3T3-L1 cells assessed as increase in Suclg1 RNA expression at 0.1 to 2.5 uM by qRT-PCR analysis; assay type: cell-based
[22] = target: T4, Peroxisome proliferator-activated receptor gamma; test: Synergistic agonist activity at human PPARgamma LBD assessed as biotin-labeled PGC1alpha (130 to 154 residues) co-activator recruitment after 1 hr in presence of 0.37 uM rosiglitazone by TR-FRET assay
[23] = target: T2, Peroxisome proliferator-activated receptor gamma (Mus musculus); test: Agonist activity at PPARgamma in mouse 3T3-L1 cells assessed as increase in pck1 RNA expression at 5 to 10 uM by qRT-PCR analysis; assay type: cell-based
[24] = target: T2, Peroxisome proliferator-activated receptor gamma (Mus musculus); test: Agonist activity at PPARgamma in mouse 3T3-L1 cells assessed as increase in glut4 RNA expression at 0.1 to 2.5 uM by qRT-PCR analysis; assay type: cell-based
[25] = target: T2, Peroxisome proliferator-activated receptor gamma (Mus musculus); test: Agonist activity at PPARgamma in mouse 3T3-L1 cells assessed as increase in adipoq RNA expression at 5 to 10 uM by qRT-PCR analysis; assay type: cell-based
[26] = target: T6, Peroxisome proliferator-activated receptor alpha (Homo sapiens) (UniProt Q07869); test: Transactivation of GAL4-tagged human PPARalpha LBD expressed in human HepG2 cells after 20 hrs by luciferase reporter gene assay relative to Wy-14,643; assay type: cell-based
T6 sequence (whole entry): T1 sequence (Q07869 whole entry)

[27] = target: T2, Peroxisome proliferator-activated receptor gamma (Mus musculus); test: Synergistic agonist activity at PPARgamma in mouse 3T3-L1 cells accessed as increase in 2-deoxy-D-glucose uptake at 10 uM in presence of 0.3 uM rosiglitazone dosed 17 hrs prior to insulin stimulation
[28] = target: T2, Peroxisome proliferator-activated receptor gamma (Mus musculus); test: Agonist activity at PPARgamma in mouse 3T3-L1 cells assessed as increase in glut4 RNA expression at 5 to 10 uM by qRT-PCR analysis; assay type: cell-based
[29] = tested on: 3T3-L1; test: Induction of lipid accumulation in mouse 3T3L1 cells at 2 uM by Oil Red O staining-based assay; assay type: functional, cell-based
[30] = tested on: 3T3-L1; test: Induction of lipid accumulation in mouse 3T3L1 cells at 5 uM by Oil Red O staining-based assay; assay type: functional, cell-based

## O=C(O)[C@H](Cc1ccc(-c2ccccc2)cc1)Oc1ccc(-c2ccccc2)cc1
[1]
  pEC50: 5.98
[2]
  Activity: Active
[3]
  Activity: Active
[4]
  Activity: inactive
[5]
  Activity: inactive
[6]
  Activity: inactive
[7]
  Activity: Active
[8]
  Activity: inactive
[9]
  pEC50: 5.55
[10]
  Activity: inactive
[11]
  Activity: inactive
[12]
  Activity: inactive
[13]
  pEC50: 5.01
[14]
  Activity: Active
[15]
  Activity: Active
[16]
  Activity: Active
[17]
  pEC50: 6.92
[18]
  Activity: inactive
[19]
  Activity: Active
[20]
  Activity: inactive
[21]
  Activity: inactive
[22]
  pEC50: 5.43
[23]
  Activity: inactive
[24]
  Activity: inactive
[25]
  Activity: inactive
[26]
  Emax: 68%
[27]
  Activity: Active
[28]
  Activity: inactive

## O=C(O)[C@@H](Cc1ccc(-c2ccccc2)cc1)Oc1ccc(-c2ccccc2)cc1
[1]
  pEC50: 5.59
[17]
  pEC50: 6.05
[26]
  Emax: 25%

## CN(CCOc1ccc(CC2SC(=O)NC2=O)cc1)c1ccccn1 (stereo unspecified)
[29]
  Activity: Active
[30]
  Activity: Active

## O=C(O)[C@H](Cc1ccccc1)Oc1ccc(-c2ccc(C[C@@H](Oc3ccc(-c4ccccc4)cc3)C(=O)O)cc2)cc1
[1]
  pEC50: 5.02
[17]
  pEC50: 4.60

## O=C(O)[C@@H](Cc1ccc(-c2ccc(O[C@H](Cc3ccccc3)C(=O)O)cc2)cc1)Oc1ccc(-c2ccccc2)cc1
[1]; hepg2
  EC50: Not Active
[17]
  pEC50: 4.82

## O=C(O)[C@H](Cc1ccc(-c2ccc(O[C@@H](Cc3ccccc3)C(=O)O)cc2)cc1)Oc1ccc(-c2ccccc2)cc1
[1]
  pEC50: 5.23
[17]
  pEC50: 5.01

## O=C(O)[C@H](Cc1ccc(-c2ccc(O[C@H](Cc3ccccc3)C(=O)O)cc2)cc1)Oc1ccc(-c2ccccc2)cc1
[1]
  pEC50: 4.57
[17]
  pEC50: 4.74
